Reference: patent US8785460B2, “Tricyclic compounds and use thereof” (Takeda Pharmaceutical Company Limited, priority 2008, dated 2014)

Legend:
[1] = target: T1, human CRF1 receptor (Homo sapiens, UniProt P34998); experiment: Measurement of CRF Binding Inhibitory Rate (receptor binding experiment with 125I-CRF); details: human CRF1 receptor expressing CHO cellular membrane fraction, 50 pM 125I-CRF, room temperature 1.5 hr, 0.05 nM to 10 μM of compound; read-out: IC50 values (CRF binding inhibition)
T1 construct: expressed in transfected cells; host or cells: CHO cells (membrane fraction)
T1 sequence (P34998 24-415): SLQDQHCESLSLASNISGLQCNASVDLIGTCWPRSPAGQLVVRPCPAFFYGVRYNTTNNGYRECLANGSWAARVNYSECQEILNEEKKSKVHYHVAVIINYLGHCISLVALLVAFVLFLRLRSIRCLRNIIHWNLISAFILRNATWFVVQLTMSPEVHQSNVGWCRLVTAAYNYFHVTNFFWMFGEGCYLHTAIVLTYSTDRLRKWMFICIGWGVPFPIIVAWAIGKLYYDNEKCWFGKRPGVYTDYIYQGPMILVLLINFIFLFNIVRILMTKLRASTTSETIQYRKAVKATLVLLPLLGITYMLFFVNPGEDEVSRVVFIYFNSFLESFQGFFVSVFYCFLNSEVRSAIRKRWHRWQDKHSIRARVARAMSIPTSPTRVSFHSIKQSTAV

Structure (SMILES)	IC50 [1]	melting point
CCOC(c1ccc(Cl)c2nc3n(c12)CCCN3c1ccc(Cl)cc1Cl)C1CC1 (centres unmarked) [Example 483, 9-Chloro-6-[cyclopropyl(ethoxy)methyl]-1-(2,4-dichlorophenyl)-1,2,3,4-tetrahydropyrimido[1,2-a]benzimidazole]	< 1000 nM	138 to 140 °C
CCN(CC)c1cccc2nc3n(c12)CCN(C)C3c1ccc(Cl)cc1Cl (centres unmarked) [Example 506, 1-(2,4-Dichlorophenyl)-N,N-diethyl-2-methyl-1,2,3,4-tetrahydropyrazino[1,2-a]benzimidazol-6-amine]	< 1000 nM	186 to 187 °C
CCN(CC)c1cccc2nc3n(c12)CCCNC3c1ccc(Cl)cc1Cl (centres unmarked) [Example 509, 1-(2,4-Dichlorophenyl)-N,N-diethyl-2,3,4,5-tetrahydro-1H-[1,4]diazepino[1,2-a]benzimidazol-7-amine]	< 1000 nM	186 to 188 °C
CCN(CC)c1cccc2nc3n(c12)CCCN=C3c1ccc(Cl)cc1Cl [Example 511, 1-(2,4-Dichlorophenyl)-N,N-diethyl-4,5-dihydro-3H-[1,4]diazepino[1,2-a]benzimidazol-7-amine]	< 1000 nM	93 to 94 °C
